In one series the test system is BT474 cells. Description: Inhibition of cell proliferation, CTG method, BT474. It counts as cell-based. The note with it: Homo sapiens, BT-474, 72 hours, read-out: hBT474 IC50. The text has this:
The present application examined the in vitro anti-proliferative activity of the compounds of the present disclosure against in vitro cultured BT474, NCI-N87, Ba/F3-EGFR-VIII and Ba/F3 HER2 A775_G776insYVMA and Ba/F3 EGFR D770_N771insSVD cell lines by CTG method.
Reagents and consumables: RPMI1640 (ThermoFisher, Cat. No. C11875500BT); fetal bovine serum (Hyclone, Cat. No. SV30087.03); 0.25% trypsin-EDTA (ThermoFisher, Cat. No. 25200-072); penicillin-streptomycin (Hyclone, Cat. No. SV30010); DMSO (Amresco, Cat. No. 0231-500ML); CTG assay kit (Promega, Cat. No. G924C); 96-well plate (Corning, Cat. No. 3603); multifunctional plate reader (Perkin Elmer, Cat. No. Envision)
Cell lines: BT474 (from the cell bank of Chinese Academy of Sciences), NCI-N87 (from ATCC), Ba/F3-EGFR-VIII, Ba/F3 HER2 A775_G776insYVMA and Ba/F3 EGFR D770_N771insSVD (all from KYinno Biotechnology (Beijing) Co., Ltd.); all of the above cells were cultured with RPMI1640 medium containing 10% fetal bovine serum, 100 U/mL penicillin, and 100 μg/mL streptomycin in the culture process.
1. […]
4. The cells were cultured for another 72 hours, and then cell viability was detected by CTG assay kit. Signal values were read with a multifunctional plate reader (Perkin Elmer). GraphPad Prism software was used to create a dose-response curve and IC50 was calculated.

The nature of series [1]: Brain tissue and whole blood concentration in SD rats after oral administration. The format is in vivo. The note with it: rat, PO 10 mg/kg, 2 h after administration. As for the experimental part:
In this assay, the pharmacokinetic characteristics of the compounds of the present application were assayed after administration of some of the compounds of the present application to SD rats by single oral administration and intravenous injection.
2. […] The mixture was stirred, vortexed and/or sonicated. Once a solution was obtained, the vehicle was gradually added to a final volume to reach the target concentration. The solution was vortexed, and sonicated to obtain a homogeneous solution.
Meanwhile, the IV group was not fasted and the PO group was fasted overnight (>12 hrs) and given food 2 hrs after drug administration. All animals had free access to water. The dosing regimen and pharmacokinetic sampling regimen are given in Table 6 and Table 7 below, respectively.
Rats were administered according to the above regimen, and blood and brain tissue samples were collected and processed at predetermined time points (collection and processing were performed according to conventional methods in the art).
The supernatant was diluted 2-fold with ultra-pure water, and the samples were analyzed by LC/MS.
Brain tissues were weighed and homogenized by adding 4-fold homogenizing solution (acetonitrile/water=1/1 v/v). […] The supernatant was diluted 2-fold with ultra-pure water, and the samples were analyzed by LC/MS.

Like-named read-outs stand apart in the source and are kept apart here.

In general, IC50 refers to the concentration that inhibits the measured activity by half. Turning to `COc1c(NC(=O)/C=C/[C@H]2CCCN2C)ccc2ncnc(Nc3ccc(OCc4ccccn4)c(Cl)c3)c12` [Example 4, (R,E)-N-(4-((3-chloro-4-(pyridin-2-ylmethoxy)phenyl)amino)-5-methoxyquinazolin-6-yl)-3-(1-methylpyrrolidin-2-yl)acrylamide], in the series with BT474 cells, the IC50 was 5 to 10 nM.
Consider `CCN1CCC[C@@H]1/C=C/C(=O)Nc1ccc2ncnc(Nc3ccc(OCc4ccccn4)c(Cl)c3)c2c1OC` [Example 29, (R,E)-N-(4-((3-chloro-4-(pyridin-2-ylmethoxy)phenyl)amino)-5-methoxyquinazolin-6-yl)-3-(1-ethylpyrrolidin-2-yl)acrylamide], for which the concentration at 2 h in series [1] (whole blood, read-out: Blood drug concentration) was 121 ng/mL; in series [1] (brain, NA: Exposure was too low to be counted, read-out: Brain tissue concentration), 43.5 ng/g. Also, the Kp at 2 h in series [1] (brain / whole blood, read-out: Brain tissue/blood ratio) worked out at 0.36.

The values above are taken from patent US20240246934A1, “QUINAZOLINE-BASED COMPOUND, COMPOSITION, AND APPLICATION OF QUINAZOLINE-BASED COMPOUND” (BEIJING SCITECH-MQ PHARMACEUTICALS LIMITED, priority 2021, published 2024).
